Laboratory results: patent US20180353486A1, “METHODS AND PHARMACEUTICAL COMPOSITIONS FOR THE TREATMENT OF DARIER DISEASE” (INSERM (Institut National de la Sante et de la Recherche …, priority 2015, published 2018)

Experiments:
[1] = system: LCE3D, LCE3E, SPRR2B, SPRR2D and loricrin in normal keratinocytes (NKs); test: Expression of EDC differentiation genes (qRT-PCR, western blot) in thapsigargin-treated normal keratinocytes; type: cell-based, human; conditions: 1 μM TG, 24 and/or 48 hours
Method: (§1) FIG. 4: TG-treated NK display the same features as DK. NKs were pretreated (TG) or not (−) with 1 μM of TG for 24 hours. a-b. […] Reversion by CsA treatment. c-d. TG-treated NK display premature differentiation markers up-regulation. SPRR2, LCE3B-E and loricrin expression is induced after 24 h (TG24) and 48 h (TG48) of TG-treatment in NK. *P<0.05. Results are from NKs from two donors (a) and one donor (b-d) and are representative of two independent experiments from two NKs.
In order to confirm that upregulation of differentiation genes is due to SERCA2 defect, qRT-PCR and western blot analysis were performed on TG-treated NKs.

[2] = system: NFATc1 in normal keratinocytes (NKs); test: NFATc1 expression and nuclear localization (qRT-PCR, western blot) in thapsigargin-treated normal keratinocytes; type: cell-based, human; conditions: 1 μM TG
Method: as §1
To test whether loss of SERCA2 function is sufficient to induce NFATc1 overexpression and activation associated with premature expression of EDC genes, NKs were treated with 1 μM of thapsigargin (TG), a SERCA pumps inhibitor, for 24 and/or 48 hours to mimick SERCA2 dysfunction in DK.

[3] = system: NFATc1 nuclear localization in Darier keratinocytes (DKs); test: NFATc1 nuclear/cytoplasmic localization by western blot in Darier keratinocytes; type: cell-based, human; conditions: 100 ng/ml Tacrolimus, 24 hours
Method: Nuclear (N) and cytoplasmic (C) cell extracts were immunoblotted for NFATc1 and actin for normalization.
Therefore, we treated healthy keratinocytes and DKs with 10 μM of CsA or 100 ng/ml of Tacrolimus for 24 hours. Western blot experiments using a specific antibody directed against NFATc1 were performed on nuclear and cytosolic extracts.

[4] = system: LCE3D, LCE3E, SPRR2B, SPRR2D and loricrin in Darier keratinocytes (DKs); test: Expression of EDC differentiation genes (qRT-PCR, western blot) in Darier keratinocytes after NFATc1 inhibition; type: cell-based, human
Method: FIG. 5: Calcineurin inhibitors and NFATc1 inhibition decreased premature differentiation in DK. Quantitative RT-PCR and western blot were performed on mRNA and protein extracts from five DKs after 48 h Tacrolimus (a-b) or 24 h and 48 h CsA treatment (b). For (a), results are expressed as fold repression compared to non-treated DK and are the mean+/−SEM of five DK. Results are representative of two independent experiments. Asterisks represent statistical significance versus the appropriate control in each case. *P<0.05 and***P<0.001 c. Relative efficiency of small interfering RNA (siRNA)-mediated NFATc1 silencing compared to scrambled control by quantitative PCR and western blotting. Decreased expression of differentiation genes after NFATc1 specific inhibition at mRNA (d). For (d), results are expressed as fold repression compared to DKs transfected with scrambled si-RNA and are the mean+/−SEM of four DK from one experiment.
To substantiate the role of NFATc1 as an enhancer of EDC genes expression in DKs and TG-treated NKs grown in basal condition, we inhibited NFATc1 activation indirectly (using calcineurin inhibitors) and directly (using small interfering RNA-mediated NFATc1 silencing), in Darier keratinocytes.
DKs maintained in proliferating conditions were treated with 100 ng ml^−1 of Tacrolimus for 24 hours.

[5] = system: Darier disease; conditions: few isolated cases, when retinoids were not recommended; systemic Cyclosporin, topical Tacrolimus; cited from earlier work

SMILES | Expression of LCE3D, LCE3E, SPRR2B, SPRR2D and loricrin transcripts and proteins (qRT-PCR, western blot) [1] | NFATc1 expression (quantitative RT-PCR) ([2]; 24 hours) | NFATc1 protein in nuclear extracts (western blot) ([2]; vs non-treated NKs) | NFATc1 localization in nuclear and cytosolic extracts (western blot) [3] | Expression of LCE3D, LCE3E, SPRR2B, SPRR2D and loricrin (quantitative RT-PCR) ([4]; DKs in proliferating conditions, 100 ng ml^−1 Tacrolimus, 24 hours) | LCE3B-E, SPRR2 and loricrin protein expression (western blot) ([4]; DKs, Tacrolimus treatment) | Treatment of Darier disease in patients [5]
C/C=C(/C)C(=O)O[C@H]1C(C)=C2[C@H]([C@@H]1OC(=O)CCCCCCC)[C@@](C)(OC(C)=O)C[C@H](OC(=O)CCC)[C@@]1(O)[C@H]2OC(=O)[C@@]1(C)O [TG, thapsigargin] | increased expression | increased NFATc1 expression | a higher amount of NFATc1 protein was located in the nucleus |  |  |  | 
C=CC[C@@H]1/C=C(\C)C[C@H](C)C[C@H](OC)[C@H]2O[C@@](O)(C(=O)C(=O)N3CCCC[C@H]3C(=O)O[C@H](/C(C)=C/[C@@H]3CC[C@@H](O)[C@H](OC)C3)[C@H](C)[C@@H](O)CC1=O)[C@H](C)C[C@@H]2OC [Tacrolimus] |  |  |  | induced NFATc1 translocation from the nucleus to the cytoplasm | significantly decreased | reduced LCE3B-E, SPRR2 and loricrin expression | successfully used
